Data set [1] deals with T1, NAD-dependent protein deacetylase sirtuin-1 (Homo sapiens, UniProt Q96EB6).
T1 sequence (Q96EB6 whole entry): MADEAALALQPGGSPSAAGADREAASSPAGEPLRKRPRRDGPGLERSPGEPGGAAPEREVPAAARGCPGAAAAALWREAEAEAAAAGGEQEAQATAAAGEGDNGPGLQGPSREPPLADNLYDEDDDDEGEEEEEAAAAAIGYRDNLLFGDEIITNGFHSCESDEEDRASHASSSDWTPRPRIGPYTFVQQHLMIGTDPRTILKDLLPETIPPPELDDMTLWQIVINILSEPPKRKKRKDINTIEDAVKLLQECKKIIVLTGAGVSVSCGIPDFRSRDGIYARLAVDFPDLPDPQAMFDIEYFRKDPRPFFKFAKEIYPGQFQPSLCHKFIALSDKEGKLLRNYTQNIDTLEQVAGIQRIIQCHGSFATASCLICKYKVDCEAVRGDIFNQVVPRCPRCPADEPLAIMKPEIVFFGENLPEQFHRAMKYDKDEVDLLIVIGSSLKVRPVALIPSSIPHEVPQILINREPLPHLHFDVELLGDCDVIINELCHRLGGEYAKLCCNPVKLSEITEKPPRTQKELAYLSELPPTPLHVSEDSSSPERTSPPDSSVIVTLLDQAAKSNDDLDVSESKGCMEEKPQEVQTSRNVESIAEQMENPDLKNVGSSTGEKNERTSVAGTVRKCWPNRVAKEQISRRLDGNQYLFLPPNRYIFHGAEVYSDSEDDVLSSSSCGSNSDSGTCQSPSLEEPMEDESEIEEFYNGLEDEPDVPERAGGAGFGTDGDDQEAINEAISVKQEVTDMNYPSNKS
Kind of data set: Inhibition of recombinant human GST or His6-tagged SIRT1 using H2N-HK-[Nepsilon-acetyl-lysine]-LM-COOH as substrate incubated for 10 mins in presence of beta-NAD+ by HPLC based assay.

Data set [2] concerns the target T2, NAD-dependent protein deacetylase sirtuin-2 (Homo sapiens, UniProt Q8IXJ6).
T2 sequence (Q8IXJ6 whole entry): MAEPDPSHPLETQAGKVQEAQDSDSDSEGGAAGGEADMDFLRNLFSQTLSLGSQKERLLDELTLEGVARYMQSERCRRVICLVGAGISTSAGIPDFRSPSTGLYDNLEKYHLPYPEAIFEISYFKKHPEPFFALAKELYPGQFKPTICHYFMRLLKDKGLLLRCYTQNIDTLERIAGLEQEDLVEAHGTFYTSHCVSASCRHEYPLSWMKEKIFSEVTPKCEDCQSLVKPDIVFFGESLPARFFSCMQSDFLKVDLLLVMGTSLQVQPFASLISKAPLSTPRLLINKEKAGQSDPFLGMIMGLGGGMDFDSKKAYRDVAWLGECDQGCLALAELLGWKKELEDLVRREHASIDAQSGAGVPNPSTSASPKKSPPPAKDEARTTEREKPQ
The experiment in a line: Inhibition of recombinant human His6-tagged SIRT2 using H2N-HK-[Nepsilon-acetyl-lysine]-LM-COOH as substrate incubated for 12 mins in presence of beta-NAD+ by HPLC based assay.

Data set [3] has as its target T3, NAD-dependent protein deacetylase sirtuin-3, mitochondrial (Homo sapiens, UniProt Q9NTG7).
T3 sequence (Q9NTG7 whole entry): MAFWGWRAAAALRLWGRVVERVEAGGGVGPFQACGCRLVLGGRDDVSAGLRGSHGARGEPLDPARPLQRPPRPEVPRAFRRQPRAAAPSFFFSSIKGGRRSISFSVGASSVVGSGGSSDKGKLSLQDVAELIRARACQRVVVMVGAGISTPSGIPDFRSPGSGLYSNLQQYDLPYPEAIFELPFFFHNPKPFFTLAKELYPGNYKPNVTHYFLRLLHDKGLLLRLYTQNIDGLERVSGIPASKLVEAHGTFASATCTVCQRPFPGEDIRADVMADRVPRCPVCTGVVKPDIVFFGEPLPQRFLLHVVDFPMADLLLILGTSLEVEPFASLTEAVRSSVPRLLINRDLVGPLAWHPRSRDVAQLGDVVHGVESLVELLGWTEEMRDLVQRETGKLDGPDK
The experiment in a line: Inhibition of recombinant human His6-tagged SIRT3 using H2N-HK-[Nepsilon-acetyl-lysine]-LM-COOH as substrate incubated for 10 mins in presence of beta-NAD+ by HPLC based assay.

Data set [4] deals with NAD-dependent protein deacylase sirtuin-5, mitochondrial (Homo sapiens, UniProt Q9NXA8). Kind of data set: Inhibition of recombinant human GST-tagged SIRT5 using CH3CONH-AR-[Nepsilon-succinyl-lysine]-ST-CONH2 as substrate incubated for 5 mins in presence of beta-NAD+ by HPLC based assay.
The target in data set [5] is NAD-dependent protein deacylase sirtuin-6 (Homo sapiens, UniProt Q8N6T7). Kind of data set: Inhibition of recombinant human His6-tagged SIRT6 using H2N-EALPK-[Nepsilon-myristoyl-lysine]-TGGPQ-CONH2 as substrate incubated for 12 mins in presence of beta-NAD+ by HPLC based assay.
For data set [6], the species on record is Homo sapiens. Kind of data set: Selectivity ratio of IC50 for recombinant human His6-tagged SIRT3 to IC50 for recombinant human GST or His6-tagged SIRT1.
The species entered for data set [7] is Homo sapiens. The experiment in a line: Selectivity ratio of IC50 for recombinant human His6-tagged SIRT3 to IC50 for recombinant human His6-tagged SIRT2.
Data set [8] in a line: Stability of compound assessed as Streptomyces griseus pronase-mediated compound hydrolysis up to 40 mins by HPLC analysis. It counts as ADME.
Data set [9] in a line: Stability of compound assessed as Streptomyces griseus pronase-mediated compound hydrolysis up to 60 mins by HPLC analysis. Format: ADME. Conditions: 1 h.
The target in data set [10] is T4, NAD-dependent protein deacetylase sirtuin-1 (Homo sapiens) (UniProt Q96EB6).
T4 sequence (whole entry): T1 sequence (Q96EB6 whole entry)
Kind of data set: Inhibition of SIRT1 in human HCT116 cells assessed as increase in p53 acetylation at lysine-382 residue after 8 hrs by Western blot assay. It counts as cell-based. The conditions noted are these: HCT-116.

Data set [11] is described as follows: Stability of compound assessed as Streptomyces griseus pronase-mediated compound hydrolysis up to 6 mins by HPLC analysis. The conditions noted are these: 0.1 h. Format: ADME.

We go through 17 molecules from ChEMBL document CHEMBL3860093, “Cyclic peptide-based potent and selective SIRT1/2 dual inhibitors harboring Nε-thioacetyl-lysine” (Bioorg Med Chem Lett, 2016).

As usually defined, the IC50 is the concentration that gives 50% inhibition.

Chain of NAD-dependent protein deacylase sirtuin-5, mitochondrial (Q9NXA8 whole entry): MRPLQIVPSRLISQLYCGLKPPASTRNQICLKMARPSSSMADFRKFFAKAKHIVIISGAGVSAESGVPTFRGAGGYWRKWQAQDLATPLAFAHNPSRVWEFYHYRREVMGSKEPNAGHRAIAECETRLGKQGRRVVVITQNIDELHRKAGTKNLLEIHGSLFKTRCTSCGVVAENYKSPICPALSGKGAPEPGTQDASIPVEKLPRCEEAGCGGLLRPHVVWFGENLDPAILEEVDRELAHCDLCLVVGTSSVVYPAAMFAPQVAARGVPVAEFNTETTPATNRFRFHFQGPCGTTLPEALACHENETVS
Chain of NAD-dependent protein deacylase sirtuin-6 (Q8N6T7 whole entry): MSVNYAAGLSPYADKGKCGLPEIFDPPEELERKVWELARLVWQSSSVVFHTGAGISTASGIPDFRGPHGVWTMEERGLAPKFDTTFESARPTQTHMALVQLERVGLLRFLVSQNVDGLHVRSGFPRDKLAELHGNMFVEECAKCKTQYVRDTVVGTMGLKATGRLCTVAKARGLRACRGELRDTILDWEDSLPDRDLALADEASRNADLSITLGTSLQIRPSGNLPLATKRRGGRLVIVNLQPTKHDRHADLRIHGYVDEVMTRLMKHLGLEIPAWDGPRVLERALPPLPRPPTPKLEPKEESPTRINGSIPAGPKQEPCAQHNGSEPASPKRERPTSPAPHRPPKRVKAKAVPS

Consider `CC(=S)NCCCC[C@@H]1NC(=O)[C@H](Cc2csc3ccccc23)NC(=O)CCCCCCC(=O)NCCCC[C@@H](C(N)=O)NC1=O`, for which the IC50 was 0.5 µM in data set [1]; 0.89 µM in data set [2]; 3.82 µM in data set [3]; more than 200 µM in data set [4]; more than 1000 µM in [5]. Also, the Ratio IC50 in the data set listed under Homo sapiens [6] came out at 7.6; in the data set listed under Homo sapiens [7] it was 4.3. Also, the Stability entry in data set [8] was “Stable”.
Take `CCCC[C@@H]1NC(=O)CCCCCCC(=O)NC[C@@H](C(N)=O)NC(=O)[C@H](CCCCNC(C)=S)NC1=O`: the values for the IC50 in data set [1], in [2] and in data set [3] were 0.45 µM, 0.18 µM and 1.06 µM, respectively. The results for the Ratio IC50 in the data set filed under Homo sapiens [6] and in the data set filed under Homo sapiens [7] were 2.4 and 5.9, respectively.
Regarding `CC(=S)NCCCC[C@@H]1NC(=O)CNCCC(=O)NCCCC[C@@H](C(N)=O)NC1=O`, the values for the IC50 in [1], in data set [2] and in data set [3] were 22 µM, 24.3 µM and 56.9 µM, respectively. In addition, the Ratio IC50 is 2.6 in the data set listed under Homo sapiens [6] and 2.3 in the data set listed under Homo sapiens [7].
On the same counts, the results for `CC(=S)NCCCC[C@@H]1NC(=O)[C@H](Cc2ccc3ccccc3c2)NC(=O)CCCCCCC(=O)NCCCC[C@@H](C(N)=O)NC1=O` are 0.57 µM, 1.4 µM, 1.94 µM, 3.4 and 1.4.
As for `CC(=S)NCCCC[C@@H]1NC(=O)CNC(=O)CCCCCCC(=O)NCCCC[C@@H](C(N)=O)NC1=O`, the values for the IC50 in data set [1], in [2] and in [3] were 3.84 µM, 3.9 µM and 3.39 µM, respectively. Further, the Ratio IC50 in the data set listed under Homo sapiens [6] and in the data set listed under Homo sapiens [7] was 0.9 throughout.
As to `CC(=S)NCCCC[C@@H]1NC(=O)[C@H](Cc2csc3ccccc23)NC(=O)CCCCCCC(=O)NC[C@@H](C(N)=O)NC1=O`, the IC50 in [1] came to 1.21 µM; in data set [2], 4.24 µM; in data set [3] it was 2.51 µM. Also, the Ratio IC50 in the data set listed under Homo sapiens [6] came out at 2.1; in the data set filed under Homo sapiens [7] it was 0.6.
Turning to `CC(=S)NCCCC[C@@H]1NC(=O)[C@H](Cc2ccc3ccccc3c2)NC(=O)CCCCCCC(=O)NCCC[C@@H](C(N)=O)NC1=O`, the IC50 in data set [1] was 0.18 µM; in data set [2], 1.2 µM; in [3] it was 3.2 µM. Further, the Ratio IC50 was determined as 17.8 in the data set filed under Homo sapiens [6] and 2.7 in the data set listed under Homo sapiens [7].
With `CC(=S)NCCCC[C@@H]1NC(=O)[C@H](Cc2ccc3ccccc3c2)NC(=O)CCCCCCC(=O)NCC[C@@H](C(N)=O)NC1=O`, the IC50 is 1.1 µM in data set [1], 2.4 µM in [2], more than 6000 µM in data set [4] and more than 4000 µM in [5]. Also, the Stability entry in [9] is recorded as “Stable”.
Take `CCCC[C@@H]1NC(=O)CCCCCCC(=O)NCCC[C@@H](C(N)=O)NC(=O)[C@H](CCCCNC(C)=S)NC1=O`: the IC50 in [1] worked out at 0.27 µM; in data set [2], 0.22 µM; in data set [3], 1.82 µM. Besides, in data set [9], the Stability entry is reported as “Stable”. In data set [10], the inhibition result was “Dose-dependent effect”.
For `CC(=S)NCCCC[C@@H]1NC(=O)[C@H](Cc2csc3ccccc23)NC(=O)CCCCCCC(=O)NCC[C@@H](C(N)=O)NC1=O`, the IC50 was 1.27 µM in data set [1]; 1.16 µM in data set [2]; 10 µM in data set [3]; more than 2000 µM in [4]; more than 1000 µM in data set [5]. In addition, the Ratio IC50 in the data set filed under Homo sapiens [6] turned out to be 7.9; in the data set filed under Homo sapiens [7] it was 8.6.
With H-HKK(Ac)LM-OH, the Stability result in data set [11] is reported as “Unstable”.
For the molecule `CC(=S)NCCCC[C@@H]1NC(=O)[C@H](Cc2ccc3ccccc3c2)NC(=O)CCCCCCC(=O)NC[C@@H](C(N)=O)NC1=O`, the IC50 is 0.71 µM in [1], 1.5 µM in [2] and 3.5 µM in data set [3]. For the same molecule, the values for the Ratio IC50 in the data set filed under Homo sapiens [6] and in the data set listed under Homo sapiens [7] were 4.9 and 2.3, respectively.
Turning to `CN(C)CCCCC(=O)Nc1ccc(NC(=S)NC(=O)c2ccc(C(C)(C)C)cc2)cc1`, the IC50 in data set [3] was determined as 25.7 µM.
As for `CCCC[C@@H]1NC(=O)CCCCCCC(=O)NCC[C@@H](C(N)=O)NC(=O)[C@H](CCCCNC(C)=S)NC1=O`, the results for the IC50 in data set [1], in data set [2] and in data set [3] were 0.82 µM, 0.42 µM and 1.48 µM, respectively. Moreover, the Ratio IC50 in the data set listed under Homo sapiens [6] worked out at 1.8; in the data set listed under Homo sapiens [7], 3.5.
Consider `CC(=S)NCCCC[C@@H]1NC(=O)[C@H](Cc2csc3ccccc23)NC(=O)CCCCCCC(=O)NCCC[C@@H](C(N)=O)NC1=O`, for which the IC50 in [1] is 0.68 µM; in data set [2], 0.48 µM; in data set [3] it was 3.18 µM; in [4] it was more than 300 µM; in data set [5], more than 2000 µM. Also, the Ratio IC50 in the data set filed under Homo sapiens [6] was 4.7; in the data set listed under Homo sapiens [7], 6.6.
For the molecule `CC(C(=O)Nc1cccc(/N=C/c2c(O)ccc3ccccc23)c1)c1ccccc1` (stereo unspecified) [SALERMIDE], the IC50 in data set [1] was 37.5 µM; in data set [2], 20.3 µM.
Turning to `CCCC[C@@H]1NC(=O)CCCCCCC(=O)NCCCC[C@@H](C(N)=O)NC(=O)[C@H](CCCCNC(C)=S)NC1=O`, the 50% inhibitory concentration (IC50) in data set [1] amounted to 0.22 µM; in [2] it was 0.24 µM; in [3], 0.47 µM. Moreover, the results for the Ratio IC50 in the data set listed under Homo sapiens [6] and in the data set filed under Homo sapiens [7] were 2.1 and 2, respectively.
